In patent US4450269A, “Mono-5-substituted-3-chloro-4H-1,2,6-thiadiazin-4-one antifungal agents” (FMC Corporation, priority 1980, dated 1984):

Assays:
[1] = tested on: Alternaria solani; assay: Spore germination test; type: cell-based; conditions: AS, 48 hours
In short: (§1)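 Compound in acetone was mixed into water agar at final 40, 10, 2.5 and 1 ppm and poured into quadrant dishes. Quadrants received spore suspension, while Erysiphe polygoni and Uromyces phaseoli spores were brushed on from infected leaves. After 48 h at 24 °C, the percentage of germinated spores was converted to a germination rating.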

[2] = tested on: Botrytis cinerea; assay: Spore germination test; type: cell-based; conditions: BC, 48 hours
In short: as §1

[3] = tested on: Uromyces phaseoli; assay: Spore germination test; type: cell-based; conditions: UP, 48 hours
In short: as §1

[4] = tested on: Uromyces phaseoli; assay: whole plant or invertebrate; conditions: foliar, read-out: Percent Disease Control, foliar, bean rust

SMILES | Spore Germination Rating ([1]; 1.0 ppm) | Spore Germination Rating ([1]; 2.5 ppm) | Spore Germination Rating ([1]; 10 ppm) | Spore Germination Rating ([1]; 40 ppm) | Spore Germination Rating ([2]; 1.0 ppm) | Spore Germination Rating ([2]; 2.5 ppm) | Spore Germination Rating ([2]; 10 ppm) | Spore Germination Rating ([2]; 40 ppm) | Spore Germination Rating ([3]; 1.0 ppm) | Spore Germination Rating ([3]; 2.5 ppm) | Spore Germination Rating ([3]; 10 ppm) | Spore Germination Rating ([3]; 40 ppm) | pest or weed control at 150 ppm [4]
COc1cc(Cl)cc(Oc2nsnc(Cl)c2=O)c1 [Compound 52, 3-chloro-5-[(3-chloro-5-methoxy)phenoxy]-4H--1,2,6-thiadiazin-4-one] | 4 (80-100) | 3 (60-80) | 0 (0-10) | 0 (0-10) | 4 (80-100) | 3 (60-80) | 0 (0-10) | 0 (0-10) | 2 (40-60) | 0 (0-10) | 0 (0-10) | 0 (0-10) | 0%
O=c1c(Cl)nsnc1Oc1cccc(Cl)c1 [Compound 13, 3-chloro-5-(3-chlorophenoxy)-4H--1,2,6-thiadiazin-4-one] | 2 (40-60) | 0 (0-10) | 0 (0-10) | 0 (0-10) | 4 (80-100) | 4 (80-100) | 0 (0-10) | 0 (0-10) | 0 (0-10) | 0 (0-10) | 0 (0-10) | 0 (0-10) | 100%
Cc1cccc(C)c1Oc1nsnc(Cl)c1=O [Compound 24, 3-chloro-5-(2,6-dimethylphenoxy)-4H--1,2,6-thiadiazin-4-one] | 1 (10-40) | 1 (10-40) | 0 (0-10) | 0 (0-10) | 3 (60-80) | 1 (10-40) | 0 (0-10) | 0 (0-10) | 1 (10-40) | 0 (0-10) | 0 (0-10) | 0 (0-10) | 100%
O=c1c(Cl)nsnc1Oc1ccccc1 [Compound 2, 3-chloro-5-phenoxy-4H--1,2,6-thiadiazin-4-one] | 4 (80-100) | 0 (0-10) | 0 (0-10) | 0 (0-10) | 4 (80-100) | 4 (80-100) | 0 (0-10) | 0 (0-10) | 2 (40-60) | 2 (40-60) | 0 (0-10) | 0 (0-10) | 100%
Cc1cc(Oc2nsnc(Cl)c2=O)cc(C)c1Br [Compound 60, 3-[(4-bromo-3,5-dimethyl)-phenoxy]-5-chloro-4H--1,2,6-thiadiazin-4-one] | 4 (80-100) | 4 (80-100) | 4 (80-100) | 3 (60-80) | 4 (80-100) | 3 (60-80) | 3 (60-80) | 3 (60-80) | 0 (0-10) | 0 (0-10) | 0 (0-10) | 0 (0-10) | 100%
Cc1ccc(Cl)c(Oc2nsnc(Cl)c2=O)c1 [Compound 56, 3-chloro-5-[(2-chloro-5-methyl)phenoxy]-4H--1,2,6-thiadiazin-4-one] | 4 (80-100) | 3 (60-80) | 0 (0-10) | 0 (0-10) | 4 (80-100) | 0 (0-10) | 0 (0-10) | 0 (0-10) | 1 (10-40) | 0 (0-10) | 0 (0-10) | 0 (0-10) | 0%
Cc1cc(C)cc(Oc2nsnc(Cl)c2=O)c1 [Compound 25, 3-chloro-5-(3,5-dimethylphenoxy)-4H--1,2,6-thiadiazin-4-one] | 4 (80-100) | 2 (40-60) | 0 (0-10) | 0 (0-10) | 2 (40-60) | 1 (10-40) | 0 (0-10) | 0 (0-10) | 4 (80-100) | 2 (40-60) | 1 (10-40) | 0 (0-10) | 100%
Nc1ccc(Oc2nsnc(Cl)c2=O)cc1 [Compound 26, 5-(4-aminophenoxy)-3-chloro-4H--1,2,6-thiadiazin-4-one] | 4 (80-100) | 3 (60-80) | 0 (0-10) | 0 (0-10) | 0 (0-10) | 0 (0-10) | 0 (0-10) | 0 (0-10) | 2 (40-60) | 3 (60-80) | 4 (80-100) | 2 (40-60) | 0%
O=c1c(Cl)nsnc1Oc1cccc2ccccc12 [Compound 32, 3-chloro-5(1-naphthoxy)-4H-1,2,6-thiadiazin-4-one] | 3 (60-80) | 1 (10-40) | 0 (0-10) | 0 (0-10) | 2 (40-60) | 0 (0-10) | 0 (0-10) | 0 (0-10) | 3 (60-80) | 0 (0-10) | 0 (0-10) | 0 (0-10) | 90%
O=C(Nc1ccccc1)Nc1ccc(Oc2nsnc(Cl)c2=O)cc1 [Compound 29, 3-chloro-5-[4-(3-phenylureido)-phenoxy]-4H--1,2,6-thiadiazin-4-one] | 4 (80-100) | 4 (80-100) | 4 (80-100) | 4 (80-100) | 3 (60-80) | 3 (60-80) | 2 (40-60) | 2 (40-60) | 4 (80-100) | 2 (40-60) | 2 (40-60) | 0 (0-10) | 0%
O=c1c(Cl)nsnc1Oc1ccccc1Br [Compound 34, 3-chloro-5-(2-bromophenoxy)-4H-1,2,6,-thiadiazin-4-one] | 4 (80-100) | 1 (10-40) | 0 (0-10) | 0 (0-10) | 2 (40-60) | 0 (0-10) | 0 (0-10) | 0 (0-10) | 0 (0-10) | 0 (0-10) | 0 (0-10) | 0 (0-10) | 85%
O=c1c(Cl)nsnc1Oc1ccc(Br)cc1 [Compound 15, 3-chloro-5-(4-bromophenoxy)-4H--1,2,6-thiadiazin-4-one] | 4 (80-100) | 1 (10-40) | 0 (0-10) | 0 (0-10) | 4 (80-100) | 1 (10-40) | 0 (0-10) | 0 (0-10) | 1 (10-40) | 0 (0-10) | 0 (0-10) | 0 (0-10) | 100%
O=c1c(Cl)nsnc1Oc1c(Cl)c(Cl)c(Cl)c(Cl)c1Cl [Compound 31, 3-chloro-5-(pentachlorophenoxy)-4H--1,2,6-thiadiazine-4-one] | 4 (80-100) | 1 (10-40) | 0 (0-10) | 0 (0-10) | 1 (10-40) | 1 (10-40) | 1 (10-40) | 0 (0-10) | 0 (0-10) | 0 (0-10) | 0 (0-10) | 0 (0-10) | 0%
Cc1ccc(Oc2nsnc(Cl)c2=O)c(C)c1 [Compound 23, 3-chloro-5-(2,4-dimethylphenoxy)-4H--1,2,6-thiadiazin-4-one] | 3 (60-80) | 3 (60-80) | 0 (0-10) | 0 (0-10) | 4 (80-100) | 4 (80-100) | 4 (80-100) | 0 (0-10) | 4 (80-100) | 4 (80-100) | 1 (10-40) | 0 (0-10) | 100%
COc1cc(Oc2nsnc(Cl)c2=O)cc(OC)c1C(C)=O [Compound 61, 3-[(4-acetyl-3,5-dimethoxy)-phenoxy]-5-chloro-4H--1,2,6-thiadiazin-4-one] | 4 (80-100) | 3 (60-80) | 2 (40-60) | 2 (40-60) | 4 (80-100) | 4 (80-100) | 3 (60-80) | 2 (40-60) | 2 (40-60) | 1 (10-40) | 2 (40-60) | 0 (0-10) | 100%
Cc1ccc(Oc2nsnc(Cl)c2=O)c(Br)c1 [Compound 57, 3-[(2-bromo-4-methyl)-phenoxy]-5-chloro-4H--1,2,6-thiadiazin-4-one] | 4 (80-100) | 2 (40-60) | 0 (0-10) | 0 (0-10) | 3 (60-80) | 1 (10-40) | 0 (0-10) | 0 (0-10) | 0 (0-10) | 0 (0-10) | 0 (0-10) | 0 (0-10) | 100%
CC(=O)Nc1ccc(Oc2nsnc(Cl)c2=O)cc1 [Compound 8, 5-(4-acetylaminophenoxy)-3-chloro-4H--1,2,6-thiadiazin-4-one] | 3 (60-80) | 2 (40-60) | 2 (40-60) | 0 (0-10) | 4 (80-100) | 4 (80-100) | 4 (80-100) | 4 (80-100) | 4 (80-100) | 4 (80-100) | 0 (0-10) | 0 (0-10) | 100%
